Three molecules from patent US5861403A, “Purinylalkyl benzamide derivatives” (G. D. Searle & Co., priority 1996, dated 1999) can be followed below.

This test deals with T1, Human Platelet Receptor (Homo sapiens, UniProt P25105).
T1 construct: tissue Lifesource, Inc. (Glenview, Ill.); host or cells: human packed platelets, washed, broken by freeze-thaw; membrane pellet
T1 sequence (P25105 whole entry): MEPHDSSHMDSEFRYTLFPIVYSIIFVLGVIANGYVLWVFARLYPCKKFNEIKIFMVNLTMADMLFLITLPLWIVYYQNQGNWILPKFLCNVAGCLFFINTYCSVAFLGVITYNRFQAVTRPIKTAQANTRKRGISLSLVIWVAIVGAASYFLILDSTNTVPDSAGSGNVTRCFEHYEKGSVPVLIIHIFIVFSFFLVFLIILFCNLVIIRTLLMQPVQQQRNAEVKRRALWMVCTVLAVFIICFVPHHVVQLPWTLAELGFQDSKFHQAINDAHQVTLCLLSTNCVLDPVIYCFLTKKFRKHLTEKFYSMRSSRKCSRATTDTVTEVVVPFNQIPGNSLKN
In words: Human Platelet Receptor Binding (inhibition of specific binding of [^3 H]PAF to human platelet membrane preparation). As to conditions: 0.5 h, 0.75 nM [^3 H]PAF, human platelet membranes, read-out: Human Platelet Receptor, % @ 10 μM (percent displacement). As for the experimental part: Assay B: Human Platelet Receptor Binding
Compounds of the invention were evaluated for their ability to inhibit specific binding of [^3 H]PAF to human platelet membrane preparation. Human packed platelets were obtained from Lifesource, Inc. (Glenview, Ill.) and washed 3 times with 10 mM Trizma pH 7.0, 2 mM EDTA (dipotassium salt), 150 mM KCl and then once with 10 mM Trizma 7.4, 20 mM CaCl2. The platelets were broken by freezing in a dry ice-ethanol bath, followed by thawing in 24° C. water baths. The preparation was centrifuged (40,000 x g, 20 minutes, […]) and the pellet suspended in 10 mM Trizma 7.4, 20 mM CaCl2, 5 mg/ml human albumin. Protein concentration in the platelet membrane preparation was determined by the Lowry method [O. H. Lowry et al., J. Biol. Chem., 193, 265-275 (1951)]. Aliquots of the membrane preparation were stored at -70° C. Each preparation was characterized for PAF receptor number and dissociation constant (Kd). In binding assays 5 μl of test compound, solubilized in DMSO, was added to polypropylene tubes along with 0.75 nM [^3 H]PAF and 200 mcl [[…]] of membranes and 95 μl 10 mM Trizma 7.4, 20 mM CaCl2, 5 mg/ml human albumin. Tubes were incubated for 30 minutes at 24° C. The incubation was terminated by adding 4 ml of ice-cold 10 mM Trizma pH 7.4, 20 mM CaCl2 and 20 mg/ml BSA prior to vacuum filtration using Whatman GF/C filters. Filters were prepared and counted in a scintillation counter. All DPM values (disintergrations per minute) were-corrected for background and isotope decay. Triplicate determinations for single doses were averaged. […] The IC50 values for the compounds of the invention were determined by the Allfit program using percent displacement data. (Allfit is a `basic` computer program for simultaneous curve fitting of a family of signoidal dose-response curves using the four parameter logistic equation.) Results are shown in Table I. In Table 1 "N.D." means not determined; "c-pent" means cyclopentyl; "c-hex" means cyclohexyl; "i-Pr" means isopropyl; "Me" means methyl; and "OMe" means methoxy.
Consider `COc1cc(Cn2cnc3ncncc32)ccc1C(=O)N(C(C)C)C1CCCCC1` [Example 2B, N-cyclohexyl-2-methoxy-N-(1-methylethyl)-4-(7H-purin-7-ylmethyl)benzamide], for which the inhibition at 10 µM was found to be 44%. Then `COc1cc(Cn2cnc3ncnc-3c2)ccc1C(=O)N(C(C)C)C1CCCCC1` [Example 7, N-cyclohexyl-2-methoxy-N-(1-methylethyl)-4-(1H-purin-1-ylmethyl)benzamide], with 40%; and `CC(C)N(C(=O)c1ccc(Cn2cnc3ncnc-3c2)cc1)C1CCCCC1` [Example 8, N-cyclohexyl-N-(1-methylethyl)-4-(1H-purin-1-ylmethyl)benzamide], with 19%.
